# According to ChEMBL document CHEMBL5584238, “Psammaplin A analogues with modified disulfide bond targeting histone deacetylases: Synthesis and biological evaluation” (Eur J Med Chem, 2024):
# Activity calls are given as the source filed them. The rule behind the calls is not given here.
# What was measured:
# HCT-116 [1] = assay: Induction of cell cycle arrest in human HCT-116 cells assessed as accumulation of cells at S phase at 1 uM after 24 hrs by PI staining based flow cytometry analysis (reference value: 52.8%); type: functional
# HCT-116 [2] = assay: Antitumor activity against human HCT-116 cells xenografted with BALB/c nude mouse assessed as tumor growth inhibition at 10 mg/kg, ip administered every 2 days for 26 days; type: functional; settings: HCT-116, 624 h, time 26 day, read-out: TGI
# HCT-116 [3] = assay: Induction of apoptosis in human HCT-116 cells assessed as early apoptotic cells at 4 uM incubated for 24 hrs by Annexin V-FITC/PI staining based flow cytometry analysis ( Rvb = 2.36%); type: functional
# HCT-116 [4] = assay: Induction of apoptosis in human HCT-116 cells assessed as late apoptotic cells at 2 uM incubated for 24 hrs by Annexin V-FITC/PI staining based flow cytometry analysis ( Rvb = 5.32%); type: functional
# HCT-116 [5] = assay: Induction of cell cycle arrest in human HCT-116 cells assessed as accumulation of cells at G1 phase at 2 uM after 24 hrs by PI staining based flow cytometry analysis (reference value: 37.9%); type: functional
# HCT-116 [6] = assay: Antiproliferative activity against human HCT-116 cells incubated for 48 hrs by MTT assay; type: functional, cell-based; settings: HCT-116, 48 h
# HCT-116 [7] = assay: Induction of apoptosis in human HCT-116 cells assessed as late apoptotic cells at 4 uM incubated for 24 hrs by Annexin V-FITC/PI staining based flow cytometry analysis ( Rvb = 5.32%); type: functional
# HCT-116 [8] = assay: Induction of apoptosis in human HCT-116 cells assessed as viable cells at 4 uM incubated for 24 hrs by Annexin V-FITC/PI staining based flow cytometry analysis ( Rvb = 92.2%); type: functional; settings: read-out: Activity
# HCT-116 [9] = assay: Induction of cell cycle arrest in human HCT-116 cells assessed as accumulation of cells at G2/M phase at 2 uM after 24 hrs by PI staining based flow cytometry analysis (reference value: 9.3%); type: functional
# HCT-116 [10] = assay: Induction of cell cycle arrest in human HCT-116 cells assessed as accumulation of cells at G1 phase at 1 uM after 24 hrs by PI staining based flow cytometry analysis (reference value: 37.9%); type: functional
# [11] = biological target: T1, Class 1 histone deacetylase (Homo sapiens) (UniProt Q13547+O15379+Q92769+Q9BY41); assay: Inhibition of class 1 HDACs in human HCT-116 cells assessed as upregulation of acetylated alpha-H3 level at 1 uM incubated for 24 hrs by Western blotting analysis; type: cell-based
# HCT-116 [12] = assay: Induction of apoptosis in human HCT-116 cells assessed as viable cells at 2 uM incubated for 24 hrs by Annexin V-FITC/PI staining based flow cytometry analysis ( Rvb = 92.2%); type: functional; settings: read-out: Activity
# HCT-116 [13] = assay: Induction of apoptosis in human HCT-116 cells assessed as necrotic cells at 2 uM incubated for 24 hrs by Annexin V-FITC/PI staining based flow cytometry analysis ( Rvb = 0.24%); type: functional
# HCT-116 [14] = assay: Induction of cell cycle arrest in human HCT-116 cells assessed as accumulation of cells at S phase at 2 uM after 24 hrs by PI staining based flow cytometry analysis (reference value: 52.8%); type: functional
# HCT-116 [15] = assay: Induction of apoptosis in human HCT-116 cells assessed as necrotic cells at 4 uM incubated for 24 hrs by Annexin V-FITC/PI staining based flow cytometry analysis ( Rvb = 0.24%); type: functional
# [16] = biological target: T2, Protein deacetylase HDAC6 (Homo sapiens) (UniProt Q9UBN7); assay: Inhibition of HDAC6 in human HCT-116 cells assessed as upregulation of acetylated alpha-tubulin level at 1 uM incubated for 24 hrs by Western blotting analysis; type: cell-based
# T2 sequence (whole entry): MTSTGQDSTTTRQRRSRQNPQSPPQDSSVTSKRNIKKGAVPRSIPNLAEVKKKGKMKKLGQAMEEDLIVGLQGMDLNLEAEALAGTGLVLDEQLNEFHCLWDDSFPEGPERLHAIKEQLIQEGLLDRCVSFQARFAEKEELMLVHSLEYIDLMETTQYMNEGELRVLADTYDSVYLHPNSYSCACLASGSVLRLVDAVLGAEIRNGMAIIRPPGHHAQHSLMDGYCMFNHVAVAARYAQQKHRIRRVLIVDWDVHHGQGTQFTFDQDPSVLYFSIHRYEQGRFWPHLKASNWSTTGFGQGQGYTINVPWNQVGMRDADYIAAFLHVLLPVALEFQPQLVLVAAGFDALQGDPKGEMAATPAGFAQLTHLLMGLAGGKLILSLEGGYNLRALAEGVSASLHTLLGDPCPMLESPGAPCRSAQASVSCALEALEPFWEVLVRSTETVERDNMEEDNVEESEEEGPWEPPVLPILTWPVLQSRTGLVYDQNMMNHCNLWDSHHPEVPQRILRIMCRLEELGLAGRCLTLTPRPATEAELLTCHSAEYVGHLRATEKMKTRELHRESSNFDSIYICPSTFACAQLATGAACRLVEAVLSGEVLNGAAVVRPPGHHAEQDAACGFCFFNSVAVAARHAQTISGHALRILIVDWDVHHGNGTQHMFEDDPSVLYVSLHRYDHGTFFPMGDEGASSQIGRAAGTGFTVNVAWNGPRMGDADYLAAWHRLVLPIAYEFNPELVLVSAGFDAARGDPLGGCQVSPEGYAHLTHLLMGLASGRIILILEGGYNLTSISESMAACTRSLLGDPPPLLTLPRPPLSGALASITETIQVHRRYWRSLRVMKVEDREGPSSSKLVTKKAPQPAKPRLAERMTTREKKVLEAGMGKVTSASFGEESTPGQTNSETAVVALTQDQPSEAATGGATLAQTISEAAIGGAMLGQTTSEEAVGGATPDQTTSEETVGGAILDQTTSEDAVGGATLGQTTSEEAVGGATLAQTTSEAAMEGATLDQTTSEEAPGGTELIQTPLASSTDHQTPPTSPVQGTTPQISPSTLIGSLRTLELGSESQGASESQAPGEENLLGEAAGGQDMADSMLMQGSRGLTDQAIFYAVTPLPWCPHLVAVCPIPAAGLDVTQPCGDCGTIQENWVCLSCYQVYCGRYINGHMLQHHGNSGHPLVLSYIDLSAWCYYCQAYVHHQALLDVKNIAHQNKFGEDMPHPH
# HCT-116 [17] = assay: Induction of apoptosis in human HCT-116 cells assessed as early apoptotic cells at 2 uM incubated for 24 hrs by Annexin V-FITC/PI staining based flow cytometry analysis ( Rvb = 2.36%); type: functional
# Histone deacetylase 1 = Histone deacetylase 1 (Homo sapiens, UniProt Q13547); assay: Inhibition of recombinant human HDAC1 using Boc-Lys(Ac)-AMC as substrate preincubated for 1 hr followed by substrate addition and measured after 2 hrs by microplate reader assay
# HCT-116 [18] = assay: Induction of cell cycle arrest in human HCT-116 cells assessed as accumulation of cells at G2/M phase at 1 uM after 24 hrs by PI staining based flow cytometry analysis (reference value: 9.3%); type: functional
# HCT-116 [19] = assay: Induction of cell cycle arrest in human HCT-116 cells assessed as accumulation of cells at S phase at 0.2 uM after 24 hrs by PI staining based flow cytometry analysis (reference value: 52.8%); type: functional
# HCT-116 [20] = assay: Induction of cell cycle arrest in human HCT-116 cells assessed as accumulation of cells at G2/M phase at 0.2 uM after 24 hrs by PI staining based flow cytometry analysis (reference value: 9.3%); type: functional
# HCT-116 [21] = assay: Induction of apoptosis in human HCT-116 cells assessed as late apoptotic cells at 0.2 uM incubated for 24 hrs by Annexin V-FITC/PI staining based flow cytometry analysis ( Rvb = 5.32%); type: functional
# HCT-116 [22] = assay: Induction of cell cycle arrest in human HCT-116 cells assessed as accumulation of cells at G2/M phase at 0.1 uM after 24 hrs by PI staining based flow cytometry analysis (reference value: 9.3%); type: functional
# NCI-H1581 = assay: Antiproliferative activity against human NCI-H1581 cells incubated for 48 hrs by MTT assay; type: functional, cell-based; settings: NCI-H1581, 48 h
# HCT-116 [23] = assay: Induction of apoptosis in human HCT-116 cells assessed as viable cells at 0.2 uM incubated for 24 hrs by Annexin V-FITC/PI staining based flow cytometry analysis ( Rvb = 92.2%); type: functional; settings: read-out: Activity
# HCT-116 [24] = assay: Induction of cell cycle arrest in human HCT-116 cells assessed as accumulation of cells at G1 phase at 0.4 uM after 24 hrs by PI staining based flow cytometry analysis (reference value: 37.9%); type: functional
# HCT-116 [25] = assay: Induction of cell cycle arrest in human HCT-116 cells assessed as accumulation of cells at S phase at 0.1 uM after 24 hrs by PI staining based flow cytometry analysis (reference value: 52.8%); type: functional
# HCT-116 [26] = assay: Induction of cell cycle arrest in human HCT-116 cells assessed as accumulation of cells at G2/M phase at 0.4 uM after 24 hrs by PI staining based flow cytometry analysis (reference value: 9.3%); type: functional
# HCT-116 [27] = assay: Induction of apoptosis in human HCT-116 cells assessed as early apoptotic cells at 0.4 uM incubated for 24 hrs by Annexin V-FITC/PI staining based flow cytometry analysis ( Rvb = 2.36%); type: functional
# HCT-116 [28] = assay: Induction of apoptosis in human HCT-116 cells assessed as early apoptotic cells at 0.2 uM incubated for 24 hrs by Annexin V-FITC/PI staining based flow cytometry analysis ( Rvb = 2.36%); type: functional
# [29] = biological target: T2, Protein deacetylase HDAC6 (Homo sapiens); assay: Inhibition of HDAC6 in human HCT-116 cells assessed as upregulation of acetylated alpha-tubulin level incubated for 24 hrs by Western blotting analysis; type: cell-based; settings: dose 0.5-4 µM
# HCT-116 [30] = assay: Induction of apoptosis in human HCT-116 cells assessed as necrotic cells at 0.4 uM incubated for 24 hrs by Annexin V-FITC/PI staining based flow cytometry analysis ( Rvb = 0.24%); type: functional
# HCT-116 [31] = assay: Induction of apoptosis in human HCT-116 cells assessed as viable cells at 0.4 uM incubated for 24 hrs by Annexin V-FITC/PI staining based flow cytometry analysis ( Rvb = 92.2%); type: functional; settings: read-out: Activity
# EBC-1 = assay: Antiproliferative activity against human EBC-1 cells incubated for 48 hrs by MTT assay; type: functional, cell-based; settings: EBC-1, 48 h
# HCT-116 [32] = assay: Induction of cell cycle arrest in human HCT-116 cells assessed as accumulation of cells at G1 phase at 0.2 uM after 24 hrs by PI staining based flow cytometry analysis (reference value: 37.9%); type: functional
# HCT-116 [33] = assay: Induction of apoptosis in human HCT-116 cells assessed as necrotic cells at 0.2 uM incubated for 24 hrs by Annexin V-FITC/PI staining based flow cytometry analysis ( Rvb = 0.24%); type: functional
# HCT-116 [34] = assay: Induction of cell cycle arrest in human HCT-116 cells assessed as accumulation of cells at G1 phase at 0.1 uM after 24 hrs by PI staining based flow cytometry analysis (reference value: 37.9%); type: functional
# HCT-116 [35] = assay: Induction of apoptosis in human HCT-116 cells assessed as late apoptotic cells at 0.4 uM incubated for 24 hrs by Annexin V-FITC/PI staining based flow cytometry analysis ( Rvb = 5.32%); type: functional
# [36] = biological target: T1, Class 1 histone deacetylase (Homo sapiens); assay: Inhibition of class 1 HDACs in human HCT-116 cells assessed as upregulation of acetylated alpha-H3 level incubated for 24 hrs by Western blotting analysis; type: cell-based; settings: dose 0.5-4 µM
# HCT-116 [37] = assay: Induction of cell cycle arrest in human HCT-116 cells assessed as accumulation of cells at S phase at 0.4 uM after 24 hrs by PI staining based flow cytometry analysis (reference value: 52.8%); type: functional
# T1 sequence (O15379 whole entry, looked up): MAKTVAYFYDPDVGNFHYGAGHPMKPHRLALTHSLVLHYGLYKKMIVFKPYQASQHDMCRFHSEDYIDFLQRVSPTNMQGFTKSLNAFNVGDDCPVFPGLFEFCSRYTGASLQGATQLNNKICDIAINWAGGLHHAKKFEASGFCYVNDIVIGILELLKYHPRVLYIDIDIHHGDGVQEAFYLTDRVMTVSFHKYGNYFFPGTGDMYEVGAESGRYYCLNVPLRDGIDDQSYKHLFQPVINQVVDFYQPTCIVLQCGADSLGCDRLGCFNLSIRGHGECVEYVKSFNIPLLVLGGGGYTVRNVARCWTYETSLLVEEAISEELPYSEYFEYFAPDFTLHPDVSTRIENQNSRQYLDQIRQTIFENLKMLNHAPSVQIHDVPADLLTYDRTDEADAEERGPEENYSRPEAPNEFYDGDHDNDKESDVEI
# T1 sequence (Q13547 whole entry, looked up): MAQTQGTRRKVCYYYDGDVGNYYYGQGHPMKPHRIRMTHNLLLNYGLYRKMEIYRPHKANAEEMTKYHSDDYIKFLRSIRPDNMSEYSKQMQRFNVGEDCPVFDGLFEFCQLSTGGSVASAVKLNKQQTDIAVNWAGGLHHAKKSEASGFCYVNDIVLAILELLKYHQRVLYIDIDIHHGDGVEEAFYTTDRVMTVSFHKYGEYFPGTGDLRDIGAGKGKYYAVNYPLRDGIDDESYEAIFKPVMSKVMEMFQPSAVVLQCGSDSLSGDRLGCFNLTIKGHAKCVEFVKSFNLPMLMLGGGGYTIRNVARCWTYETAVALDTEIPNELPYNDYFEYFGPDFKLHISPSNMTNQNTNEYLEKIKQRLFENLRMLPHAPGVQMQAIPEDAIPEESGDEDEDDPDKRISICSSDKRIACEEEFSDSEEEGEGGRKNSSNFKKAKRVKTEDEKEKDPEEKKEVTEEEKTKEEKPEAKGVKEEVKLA
# T1 sequence (Q92769 whole entry, looked up): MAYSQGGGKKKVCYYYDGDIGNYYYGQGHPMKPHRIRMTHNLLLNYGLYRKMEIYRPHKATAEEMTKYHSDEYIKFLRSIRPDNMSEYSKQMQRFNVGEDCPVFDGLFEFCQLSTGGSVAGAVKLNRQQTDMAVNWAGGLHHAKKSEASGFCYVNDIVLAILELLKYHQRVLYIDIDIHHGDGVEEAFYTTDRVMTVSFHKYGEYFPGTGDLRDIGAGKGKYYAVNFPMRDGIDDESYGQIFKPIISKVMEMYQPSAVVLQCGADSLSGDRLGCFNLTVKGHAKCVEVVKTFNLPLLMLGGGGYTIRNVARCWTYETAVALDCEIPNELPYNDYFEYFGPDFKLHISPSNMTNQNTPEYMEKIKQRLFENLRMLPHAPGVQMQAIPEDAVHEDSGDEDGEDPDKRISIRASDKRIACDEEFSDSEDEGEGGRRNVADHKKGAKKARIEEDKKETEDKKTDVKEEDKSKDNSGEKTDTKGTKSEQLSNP
# T1 sequence (Q9BY41 whole entry, looked up): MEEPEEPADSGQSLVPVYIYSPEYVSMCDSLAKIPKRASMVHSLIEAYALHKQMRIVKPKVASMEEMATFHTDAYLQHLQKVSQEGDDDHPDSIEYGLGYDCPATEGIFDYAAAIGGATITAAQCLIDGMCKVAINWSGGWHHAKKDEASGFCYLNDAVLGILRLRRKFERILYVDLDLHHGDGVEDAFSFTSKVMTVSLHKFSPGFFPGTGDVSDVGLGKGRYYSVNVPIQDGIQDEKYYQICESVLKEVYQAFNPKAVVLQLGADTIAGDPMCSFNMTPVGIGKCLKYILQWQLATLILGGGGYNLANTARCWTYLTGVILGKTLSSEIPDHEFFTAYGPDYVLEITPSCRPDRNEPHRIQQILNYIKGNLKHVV
# Histone deacetylase 1, sequence (Q13547 whole entry): as the sequence (Q13547 whole entry, looked up) above
structure (smiles),measurement,setting,value
O=C(NCCSSCCNC(=O)/C(Cc1ccc(O)c(Br)c1)=N/O)/C(Cc1ccc(O)c(Br)c1)=N/O [PSAMMAPLIN A],Activity,HCT-116 [1],41.24%
same,inhibition in vivo at 10 mg/kg,HCT-116 [2],36.1%
same,Activity,HCT-116 [3],16.2%
same,Activity,HCT-116 [4],14.8%
same,Activity,HCT-116 [5],55.34%
same,IC50,HCT-116 [6],3050 nM
same,Activity,HCT-116 [7],40.3%
same,viability at 4 µM,HCT-116 [8],42.5%
same,Activity,HCT-116 [9],16.09%
same,Activity,HCT-116 [10],45.72%
same,inhibition,[11],Active
same,viability at 2 µM,HCT-116 [12],74.8%
same,Activity,HCT-116 [13],0.67%
same,Activity,HCT-116 [14],28.56%
same,Activity,HCT-116 [15],1.06%
same,inhibition,[16],inactive
same,Activity,HCT-116 [17],9.74%
same,IC50,Histone deacetylase 1,26 nM
same,Activity,HCT-116 [18],13.05%
O=C(NCC[Se][Se]CCNC(=O)/C(Cc1ccc(Br)o1)=N/O)/C(Cc1ccc(Br)o1)=N/O,Activity,HCT-116 [19],31.39%
same,Activity,HCT-116 [20],17.28%
same,Activity,HCT-116 [21],18.2%
same,Activity,HCT-116 [22],18.51%
same,IC50,NCI-H1581,480 nM
same,IC50,HCT-116 [6],290 nM
same,viability at 0.2 µM,HCT-116 [23],80.6%
same,Activity,HCT-116 [24],56.35%
same,Activity,HCT-116 [25],45.66%
same,Activity,HCT-116 [26],19.11%
same,Activity,HCT-116 [27],17.8%
same,Activity,HCT-116 [28],11.4%
same,inhibition,[29],Dose-Dependent Effect
same,Activity,HCT-116 [30],0%
same,viability at 0.4 µM,HCT-116 [31],70.3%
same,IC50,EBC-1,620 nM
same,Activity,HCT-116 [32],51.33%
same,inhibition,[11],Active
same,Activity,HCT-116 [33],0.001%
same,Activity,HCT-116 [34],35.83%
same,Activity,HCT-116 [35],11.9%
same,inhibition,[36],Dose-Dependent Effect
same,Activity,HCT-116 [37],24.54%
same,inhibition,[16],Active
